In PubChem BioAssay AID256 (DTP/NCI, 2004):
Values joined by “and” are separate entries in the source; they are usually repeats but may differ in a detail not shown here. Equal values may be shown once. Inconclusive results and toxic doses are left out.

Test system: CD2F1 mice, L1210 leukemia ip, survival T/C
Assay: NCI In Vivo Anticancer Drug Screen. Data for tumor model L1210 Leukemia (intraperitoneal) in CD2F1 (CDF1) mice
Details: higher = longer survival
How it was run: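 Ratio T/C, where T is the treated-group value and C the vehicle-dosed control value, from mice implanted with a transplantable tumor.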

[1] = endpoint: mean survival time, dose: 25.0 mg/kg/injection, schedule: Q01DX009 (ip), vehicle: saline with Tween-80
[2] = endpoint: mean survival time, dose: 25.0 mg/kg/injection, schedule: Q04DX003 (ip), vehicle: saline with Tween-80
[3] = endpoint: mean survival time, dose: 100.0 mg/kg/injection, schedule: Q01DX001 (ip), vehicle: saline with Tween-80
[4] = endpoint: mean survival time, dose: 200.0 mg/kg/injection, schedule: Q01DX001 (ip), vehicle: saline with Tween-80
[5] = endpoint: mean survival time, dose: 400.0 mg/kg/injection, schedule: Q01DX001 (ip), vehicle: saline with Tween-80
[6] = endpoint: mean survival time, dose: 100.0 mg/kg/injection, schedule: Q01DX009 (ip), vehicle: saline with Tween-80
[7] = endpoint: mean survival time, dose: 200.0 mg/kg/injection, schedule: Q01DX009 (ip), vehicle: saline with Tween-80

CCOC(=O)/C=C/C(=O)[O-].CCOC(=O)/C=C/C(=O)[O-].NC1CCCCC1N.[Pt+4]
T/C (endpoint: median survival time, dose: 3.12 mg/kg/injection, schedule: Q04DX003 (ip), vehicle: saline with Tween-80): 101 % of control and 103 % of control | T/C (endpoint: median survival time, dose: 6.25 mg/kg/injection, schedule: Q04DX003 (ip), vehicle: saline with Tween-80): 103 % of control and 108 % of control | T/C (endpoint: median survival time, dose: 12.5 mg/kg/injection, schedule: Q04DX003 (ip), vehicle: saline with Tween-80): 113 % of control and 112 % of control | T/C (endpoint: median survival time, dose: 25.0 mg/kg/injection, schedule: Q04DX003 (ip), vehicle: saline with Tween-80): 123 % of control | T/C (endpoint: median survival time, dose: 100.0 mg/kg/injection, schedule: Q04DX003 (ip), vehicle: saline with Tween-80): 164 % of control | T/C (endpoint: median survival time, dose: 200.0 mg/kg/injection, schedule: Q04DX003 (ip), vehicle: saline with Tween-80): 166 % of control and 333 % of control

CC(=O)CS(=O)(=O)CC(N)=O
T/C (endpoint: mean survival time, dose: 100.0 mg/kg/injection, schedule: Q01DX001 (ip), vehicle: saline sonified): 96 % of control | T/C (endpoint: mean survival time, dose: 200.0 mg/kg/injection, schedule: Q01DX001 (ip), vehicle: saline sonified): 96 % of control | T/C (endpoint: mean survival time, dose: 400.0 mg/kg/injection, schedule: Q01DX001 (ip), vehicle: saline sonified): 97 % of control

O=P1(Cc2ccccc2)C(c2ccccc2)=C(O)C2CCCC21 (stereo not given)
T/C (endpoint: mean survival time, dose: 50.0 mg/kg/injection, schedule: Q01DX009 (ip), vehicle: Klucel (hydroxypropylcellulose) (HPC)): 97 % of control | T/C (endpoint: mean survival time, dose: 100.0 mg/kg/injection, schedule: Q01DX009 (ip), vehicle: Klucel (hydroxypropylcellulose) (HPC)): 97 % of control | T/C (endpoint: mean survival time, dose: 200.0 mg/kg/injection, schedule: Q01DX009 (ip), vehicle: Klucel (hydroxypropylcellulose) (HPC)): 89 % of control

CCC12CCCN3CCc4c(n(c5ccccc45)C(O)(C(=O)OC)C1)C32 (stereo not given)
T/C (endpoint: mean survival time, dose: 5.0 mg/kg/injection, schedule: Q01DX001 (ip), vehicle: saline): 108 % of control | T/C (endpoint: mean survival time, dose: 10.0 mg/kg/injection, schedule: Q01DX001 (ip), vehicle: saline): 101 % of control | T/C (endpoint: mean survival time, dose: 20.0 mg/kg/injection, schedule: Q01DX001 (ip), vehicle: saline): 102 % of control | T/C (endpoint: mean survival time, dose: 40.0 mg/kg/injection, schedule: Q01DX001 (ip), vehicle: saline): 101 % of control

CCCCCCCCCCCCCCCC(=O)N(C/C=C/CN(CCCN(C)C)C(=O)CCCCCCCCCCCCCCC)CCCN(C)C
T/C (endpoint: mean survival time, dose: 6.25 mg/kg/injection, schedule: Q01DX009 (ip), vehicle: saline with Tween-80): 92 % of control | T/C (endpoint: mean survival time, dose: 6.25 mg/kg/injection, schedule: Q04DX003 (ip), vehicle: saline with Tween-80): 95 % of control | T/C (endpoint: mean survival time, dose: 12.5 mg/kg/injection, schedule: Q01DX009 (ip), vehicle: saline with Tween-80): 93 % of control | T/C (endpoint: mean survival time, dose: 12.5 mg/kg/injection, schedule: Q04DX003 (ip), vehicle: saline with Tween-80): 93 % of control | T/C [1]: 94 % of control | T/C [2]: 98 % of control

O=C(C1=CN(CCCO)CCC1)c1cc2ccccc2[nH]1
T/C [3]: 94 % of control | T/C [4]: 94 % of control | T/C [5]: 97 % of control

c1ccc2c(c1)Cc1c-2nc2ccccc2c1N1CCOCC1
T/C [3]: 94 % of control | T/C [6]: 97 % of control | T/C [4]: 100 % of control | T/C [7]: 106 % of control | T/C [5]: 92 % of control

O=C(O)c1cccc2[nH][nH]c(=O)c12
T/C [3]: 100 % of control | T/C [6]: 101 % of control | T/C [4]: 102 % of control | T/C [7]: 100 % of control | T/C [5]: 100 % of control | T/C (endpoint: mean survival time, dose: 400.0 mg/kg/injection, schedule: Q01DX009 (ip), vehicle: saline with Tween-80): 98 % of control

CCOC(=O)CCN(CCC(=O)OCC)Cc1ccccc1
T/C (endpoint: mean survival time, dose: 100.0 mg/kg/injection, schedule: Q04DX002 (ip), vehicle: saline with Tween-80): 112 % of control | T/C (endpoint: mean survival time, dose: 200.0 mg/kg/injection, schedule: Q04DX002 (ip), vehicle: saline with Tween-80): 100 % of control | T/C (endpoint: mean survival time, dose: 400.0 mg/kg/injection, schedule: Q04DX002 (ip), vehicle: saline with Tween-80): 103 % of control

O=C(O)/C(Cl)=C(/Cl)C(Cl)=C(Cl)Cl
T/C [1]: 96 % of control | T/C [2]: 100 % of control | T/C (endpoint: mean survival time, dose: 50.0 mg/kg/injection, schedule: Q01DX009 (ip), vehicle: saline with Tween-80): 95 % of control | T/C (endpoint: mean survival time, dose: 50.0 mg/kg/injection, schedule: Q04DX003 (ip), vehicle: saline with Tween-80): 98 % of control | T/C [6]: 93 % of control | T/C (endpoint: mean survival time, dose: 100.0 mg/kg/injection, schedule: Q04DX003 (ip), vehicle: saline with Tween-80): 91 % of control
